For 2 molecules, CC50, IC50 and selectivity ratio results are on record in ChEMBL document CHEMBL5143580, “Ophiorrhines F and G, Key Biogenetic Intermediates of Ophiorrhine Alkaloids from Ophiorrhiza japonica and Their Immunosuppressant Activities” (J Nat Prod, 2022).

Series [1] in a line: Cytotoxicity in BALB/c mouse Splenocyte assessed as reduction in cell viability incubated for 48 hrs by CCK-8 assay. Format: toxicity, cell-based. The note with it: splenocytes. A general note: Formazan colour is commonly taken as a measure of viable cells.
Series [2] deals with Splenocyte. Kind of series: Immunosuppressive activity in BALB/c mouse Splenocyte assessed as inhibition of concanavalin A induced T-cell proliferation by [3H]-thymidine incorporation based beta scintillation counter analysis. The format is functional. (In general: Dividing cells build labelled thymidine or BrdU into new DNA.)
The test system of series [3] is Splenocyte. Kind of series: Immunosuppressive activity in BALB/c mouse Splenocyte assessed as inhibition of LPS induced B-cell proliferation by [3H]-thymidine incorporation based beta scintillation counter analysis. The format is functional.
Series [4] is described as follows: Selectivity index, ratio of CC50 for BALB/c mouse Splenocyte to IC50 for Immunosuppressive activity in BALB/c mouse Splenocyte assessed as inhibition of concanavalin A-induced T-cell proliferation. Format: toxicity. The note with it: splenocytes, read-out: Ratio CC50/IC50.
Series [5] in a line: Selectivity index, ratio of CC50 for BALB/c mouse Splenocyte to IC50 for Immunosuppressive activity in BALB/c mouse Splenocyte assessed as inhibition of LPS-induced B-cell proliferation. Format: toxicity. Particulars: splenocytes, read-out: Ratio CC50/IC50.

For the molecule `C=C[C@H]1[C@H](O[C@@H]2O[C@H](CO)[C@@H](O)[C@H](O)[C@H]2O)OC=C(C(=O)OC)[C@H]1CC(=O)c1[nH]c2ccccc2c1CC(=O)NC`, the CC50 at 48 h in series [1] is 170 µM. In addition, the IC50 in the series on Splenocyte [2] was above 200 µM; in the series on Splenocyte [3], 47.4 µM. In addition, the selectivity ratio was below 0.85 in series [4] and 3.59 in series [5].
The like results for `C=C[C@H]1[C@H](O[C@@H]2O[C@H](CO)[C@@H](O)[C@H](O)[C@H]2O)OC=C(C(=O)OC)[C@H]1CC(=O)c1[nH]c2ccccc2c1[C@H](OC)C(=O)NC` were, in that order, 208 µM, above 200 µM, below 0.38 µM, below 1.04 and above 548.

Broadly, the CC50 is the concentration giving 50% cytotoxicity. One may read the IC50 as the concentration at which inhibition is half-maximal.
